For assay [1], the system named is PLD/PAP-1 pathway (DAG production). Briefly: DAG production at site of particle engulfment measured with PKC/C2-GFP. The format is cell-based, murine. The text has this: FIG. 28 illustrates use of DAG binding domains to screen for atherosclerosis drugs in macrophages.
Another assay deals with human neutrophils. Briefly: fMLP induced oxidative burst, cytochrome C reduction assay. Format: cell-based.
The test system of a further assay is RAW macrophages. Briefly: Biochemical measurement of protein levels in fractions of drug treated RAW macrophages. The format is cell-based, murine. The settings on record: FIG. 67 cytosol fractions. An excerpt:
A now well established side effect of ethanol is to prevent heart attack. Thus the common effects of statins, propranolol, and ethanol must be closely linked to the central mechanism that is the most important pharmacological target of heart attack and thus atherosclerosis prevention. It remains possible that the preventative effect of statins results from their effect to inhibit particle engulfment and foam cell formation by macrophages leading to atherosclerotic plaques. We created a foam cell model and quantitative confocal assays for micro particle engulfment by macrophages. The engulfment of particles by macrophages and the generation of free radicals by leukocytes are the key physiological actions that lead to the generation of foam cells that are the center of atherosclerotic plaques. We have made a cellular model system of leukocytes or activated leukocytes or leukocytes treated over time to examine the effects drugs and biopolymer modification materials over time on the activation of receptors at the site of modified or ligand coated particles. The drugs used in this system to examine the kinetics of receptor function at modified particles may result in changes to the cell including changes in gene expression at the level of DNA transcription, RNA production, accumulation or post-transcription processing, mRNA production accumulation or expression all of which may also alter protein expression. We examined the use of these model systems with and without beads as a system to screen the effects of drugs that are known to prevent heart attack and stroke in model of leukocyte cells within atherosclerotic plaques. We observe that drugs that effect receptor associated signaling may also alter gene, RNA or ultimately protein expression in cells resulting in changes in protein levels. Proteins that change levels in response to a drug may be themselves drug target proteins.
The drugs used in the leukocyte model system to examine the kinetics of receptor function at modified particles may result in changes to the cell including changes in gene expression at the level of DNA transcription, RNA production, accumulation or post-transcription processing, mRNA production accumulation or expression all of which may also alter protein expression. We examined the use of these model systems with and without beads as a system to screen the effects of drugs that are known to effect receptor response at or near the cell surface or interior of the cells. We observe that drugs that effect receptor associated signaling may also alter gene, RNA or ultimately protein expression in cells resulting in changes in protein levels. Proteins that change levels in response to a drug may be themselves drug target proteins. […] The RAW leukocyte model foam cells system alone or in combination with the bead based biology system can be used to characterize the effects of receptor or cellular activation in terms of second messengers such as lipid and protein phosphorylation with respect to drug treatment or time in the cytosol of leukocytes (FIG. 67).

The subject of the next assay is RAW 264.7 macrophages. Briefly: Phagocytic receptor assay: engulfment of IgG or ligand coated particles by RAW macrophages (foam cell model), confocal. Format: cell-based, murine. The settings on record: for engulfment / accumulation of IgG or ligand coated particles: RAW macrophages, confocal. The text has this: FIG. 25, panels A and B, illustrate respectfully a method for measurement of phagocytic receptors and a method for measuring transfection or delivery of nucleic acids and simultaneous measurement of particle engulfment using a single cell multi label confocal microscope experiment. A direct or surrogate measurement of receptor function or receptor pathway activity must be made in order establish the role of potential therapeutic target proteins in receptor function. IgG, complement, low density lipoprotein (LDL), oxidatively modified LDL (OX-LDL). Acetyl-LDL, apolipoproteins, lipoproteins, lipopolysaccharide (LPS), scavenger and other receptor functions can be measured by the accumulation of particles. The particles may themselves be comprised in part of fluorescent materials or can be directly stained with fluorescent or other colored materials or can be bound by proteins that directly or indirectly permit the attachment of fluorescent, chemiluminescent or other reporter molecules. The beads may be stained in live cells or cells fixed with formalin or paraformaldehyde or organic solvents such as alcohol and acids or by other means. The beads can be stained both before or after internalization with or without the permeabilization of the cells by detergents or organic solvents. The beads may be cells that can be lysed and imaged directly. The cells may be counter stained for the presence of specific proteins using antibodies or may express fluorescent protein constructs or contain fluorescent silencing RNA or DNA constructs or biopolymer modulating agents or drugs (FIG. 25).
We created a foam cell model and quantitative confocal assays for micro particle engulfment by macrophages. The engulfment of particles by macrophages and the generation of free radicals by leukocytes are the key physiological actions that lead to the generation of foam cells that are the center of atherosclerotic plaques. We made a cellular model system of foam cells or activated leukocytes and examine the effects of moderate levels of alcohol over time on the accumulation of particles and generation of free radicals at the site of particle accumulation compared to statins and propranolol. The model systems will consist of RAW macrophages that engulf hydrophobic polystyrene microparticles with or without coating by ligands or mixtures of ligands such as those found in cellular growth media, or free fluorescently labeled DI-LDL, OX-LDL, Acetyl LDL or other. Live cell confocal microscopy was used to quantify the effects of ethanol, compared to lovastatin and propranolol, on particle engulfment.
External particles were stained green with secondary anti rabbit FITC and then cells were permeablized and all particles stained red with secondary anti rabbit CY3. Thus engulfed particles appear red while external particles appear yellow. Beads within the cells carrying only the red signal (engulfed) and not also the green signal {red+green=yellow} (outside) were quantified for accumulation assays using both total fluorescence in the green channel and by counting individual beads in three fields on three independent cover slips for each concentration.
RAW 264.7 macrophages were cultured in alpha MEM with 5% fetal calf serum as described. The effects of lovastatin on IgG and LDL coated micro-particle engulfment at 0, 50 nM, 100 nM, 500 nM, 1 mM and higher was tested. The accumulation of free DI-LDL was quantified directly by its red fluorescence. External particles were stained green with secondary anti rabbit FITC and then cells were permeablized and all particles stained red with secondary anti rabbit CY3. Thus engulfed particles appear red while external particles appear yellow.

In a further assay the test system is PI3K pathway to PIP3. Briefly: PIP3 accumulation at site of IgG coated particles measured with AKT/PH-GFP. Format: cell-based, murine. How it is done:
FIG. 27 illustrates the use of PiP3 binding PH domains to screen atherosclerosis drugs in macrophages.
The PI3K pathway that converts PIP4, 5 bis-phosphate to PIP3, 4, 5, triphosphate, also called PIP3. PIP3 is measured by the Pleckstrin Homology (PH) domain of the protein kinase AKT, that has a high affinity for PIP3, fused to GFP (AKT/PH-GFP). The accumulation of phosphatidyl inositol triphosphate at the site of IgG coated particles was inhibited using wortamannin, and LY294002 dissolved into the cell experimental media.

The test system of a further assay is PLC. To be noted: PLC-delta PH domain. The text has this: The metabolic activation of the receptor pathway at the binding site of modified beads such as ligand coated particles may be detected, measured and quantified using green fluorescence protein (GFP) fused with binding domains specific to different biopolymers, or modified biopolymers or metabolites in including phosphorylations at the site of modified particle or bead or binding.

The conditions of assay [2]: in vivo; cited from earlier work.
The test system of the next assay is PLD pathway. The settings on record: 500 micromolar; cited from earlier work.
Another assay deals with RAW cells. Briefly: Cellular cholesterol extraction, filipin staining. To be noted: brief incubation. Format: cell-based, murine. The text has this:
Cholesterol levels were quantified by the esterase assay, oil red- and filipin-staining.

Assay [3] concerns sheep red blood cells phagocytosis. Briefly: Phagocytosis of sheep red blood cells. Format: cell-based. To be noted: 15 to 30 minute incubation.
Where [4] appears, read: listed as Methyl-beta-cyclo-dextrin.
Where [5] appears, read: listed as methyl beta cyclo dextrin.

“Also recorded” adds a separate entry of the source.

With `CCCCC/C=C\C/C=C\C/C=C\C/C=C\CCCC(=O)C(F)(F)F` [AACOCF3], in assay [1], the “DAG production at the site of ligand coated bead binding” value (“DAG production at the site” for short) is listed as “Neither MAFP nor AACOCF3 prevent DAG production”. For the same molecule, the “fMLP induced oxidative burst (super oxide radicals)” value (“fMLP induced oxidative burst” below) with human neutrophils is “little effect on the oxidative burst”.
With `[F][Al-]([F])([F])[F]` [AlF4], the “levels of proteins after G protein stimulatory drug (FIG. 67)” value with RAW macrophages is “alter levels of proteins in the membranes”.
Take `CCCCCCCC(=O)OCC(CO)OC(=O)CCCCCCC` (centres unmarked) [DiC8]: the “reversal of PLD pathway inhibitor effect on particle engulfment” value in the assay with RAW 264.7 macrophages (add-back of PLD pathway product) is listed as “the effect is reversed by DiC8”.
On to `O=C1O/C(=C/Br)CCC1c1cccc2ccccc12` (centres unmarked) [HELSS], for which the “engulfment / accumulation of IgG or ligand coated particles” value (from here on “engulfment / accumulation”) in the assay on RAW 264.7 macrophages is listed as “prevent particle accumulation”. In the assay with PI3K pathway to PIP3, the “accumulation of PIP3 at the site of IgG coated particles” value (“accumulation of PIP3” below) is on record as “no side effect on the PI3K pathway to PIP3”. Moreover, in [1], the “DAG production at the site” value is recorded as “prohibit DAG production; also recorded: inhibitory effect”. Moreover, the “PIP2 catalysis by PLC” value in the assay on PLC was “neither EtOH, HELSS or propranolol interfere with the catalytic action of PLC”. Besides, the “fMLP induced oxidative burst” value with human neutrophils is “inhibited the fMLP induced oxidative burst in a dose dependant manner”.
On to `CC(C)(C)n1nc(-c2ccc(Cl)cc2)c2c(N)ncnc21` [PP2], for which, in the assay on RAW 264.7 macrophages, the “engulfment / accumulation” value is reported as “inhibited”.
On to `CCCC(=O)Nc1ccc(OCC(O)CNC(C)C)c(C(C)=O)c1` (centres unmarked) [acetbutolol], for which the “engulfment / accumulation” value in the assay on RAW 264.7 macrophages is listed as “do not inhibit particle engulfment”. The “fMLP induced oxidative burst” value in the assay on human neutrophils is recorded as “not as effective as the PAP-1 inhibitor propranolol”.
Take `CC(C)NCC(O)COc1ccc(CC(N)=O)cc1` (centres unmarked) [atenolol]: the “engulfment / accumulation” value with RAW 264.7 macrophages is given as “do not inhibit particle engulfment”. Moreover, in the assay on human neutrophils, the “fMLP induced oxidative burst” value is on record as “not as effective as the PAP-1 inhibitor propranolol”.
For `C=C1[C@@H](C)[C@H]2[C@H](Cc3ccccc3)NC(=O)[C@]23[C@H](OC(C)=O)/C=C/[C@@](C)(O)C(=O)[C@@H](C)C/C=C/[C@H]3[C@@H]1O` [cytochalasin D], in the assay with PI3K pathway to PIP3, the “accumulation of PIP3” value is given as “inhibited”.
As to `CCO` [ethanol], the “engulfment / accumulation” value in the assay on RAW 264.7 macrophages is listed as “prevent particle accumulation”. In the assay with PI3K pathway to PIP3, the “accumulation of PIP3” value is given as “no side effect on the PI3K pathway to PIP3”. For the same molecule, in assay [1], the “DAG production at the site” value is “prohibit DAG production”. The “PIP2 catalysis by PLC” value in the assay on PLC is listed as “neither EtOH, HELSS or propranolol interfere with the catalytic action of PLC”. In addition, the “fMLP induced oxidative burst” value in the assay with human neutrophils is given as “inhibited the fMLP induced oxidative burst in a dose dependant manner”.
`COCCc1ccc(OCC(O)CNC(C)C)cc1` (centres unmarked) [metoprolol]: the “engulfment / accumulation” value in the assay with RAW 264.7 macrophages is reported as “do not inhibit particle engulfment”. Further, the “fMLP induced oxidative burst” value in the assay with human neutrophils is on record as “not as effective as the PAP-1 inhibitor propranolol”.
As for `CC(C)(C)NCC(O)COc1cccc2c1CC(O)C(O)C2` (centres unmarked) [nadolol], in the assay on RAW 264.7 macrophages, the “engulfment / accumulation” value is on record as “do not inhibit particle engulfment”. In addition, the “fMLP induced oxidative burst” value in the assay on human neutrophils is “not as effective as the PAP-1 inhibitor propranolol”.
In the same order, the values of `CC(C)NCC(O)COc1cccc2[nH]ccc12` (centres unmarked) [pindolol] are “do not inhibit particle engulfment” and “not as effective as the PAP-1 inhibitor propranolol”.
For the molecule `CC(C)NCC(O)COc1cccc2ccccc12` (centres unmarked) [propranolol], the “engulfment / accumulation” value is recorded as “prevent particle accumulation” in the assay on RAW 264.7 macrophages and “had the largest effect in preventing the engulfment” with RAW 264.7 macrophages (listed as Propranolol). In the assay with PI3K pathway to PIP3, the “accumulation of PIP3” value is on record as “no side effect on the PI3K pathway to PIP3”. In addition, in assay [1], the “DAG production at the site” value is “prohibit DAG production”. For the same molecule, the “PIP2 catalysis by PLC” value in the assay on PLC is “neither EtOH, HELSS or propranolol interfere with the catalytic action of PLC”. Also, the “fMLP induced oxidative burst” value in the assay with human neutrophils was “inhibited the fMLP induced oxidative burst in a dose dependant manner; also recorded: much greater effect in preventing the generation of free radicals”. Besides, the “decrease in rate of heart attack” value in assay [2] is given as “about 35%”. Further, in the assay with PLD pathway, the “effect in in vitro experiments” value is reported as “little effect”.
In the case of methyl-beta cyclodextrin [MBCD], the results for the “engulfment / accumulation” value in the assay with RAW 264.7 macrophages, in the assay with RAW 264.7 macrophages (setting [4]) and with RAW 264.7 macrophages (setting [5]) were “no effect on particle engulfment”, “no effect on particle accumulation” and “little inhibitory effect”, respectively. Further, the “accumulation of PIP3” value in the assay with PI3K pathway to PIP3 is given as “did not prevent”. For the same molecule, the “extraction of cellular cholesterol” value with RAW cells (setting [4]) is listed as “highly effective cholesterol scavenger”; with RAW cells (setting [5]), “effective to extract cholesterol”. The “phagocytosis of sheep red blood cells” value in assay [3] is reported as “no effect”.

(Values after patent US20080124310A1, “Bead based receptor biology” (priority 2006, published 2008).)
